Drawing on US11981680B2, “Substituted thienopyrroles as PAD4 inhibitors” (BRISTOL-MYERS SQUIBB COMPANY, priority 2018, dated 2024), this text covers IC50 for 18 compounds.

human PAD4 (hPAD4), sequence (Q9UM07 whole entry): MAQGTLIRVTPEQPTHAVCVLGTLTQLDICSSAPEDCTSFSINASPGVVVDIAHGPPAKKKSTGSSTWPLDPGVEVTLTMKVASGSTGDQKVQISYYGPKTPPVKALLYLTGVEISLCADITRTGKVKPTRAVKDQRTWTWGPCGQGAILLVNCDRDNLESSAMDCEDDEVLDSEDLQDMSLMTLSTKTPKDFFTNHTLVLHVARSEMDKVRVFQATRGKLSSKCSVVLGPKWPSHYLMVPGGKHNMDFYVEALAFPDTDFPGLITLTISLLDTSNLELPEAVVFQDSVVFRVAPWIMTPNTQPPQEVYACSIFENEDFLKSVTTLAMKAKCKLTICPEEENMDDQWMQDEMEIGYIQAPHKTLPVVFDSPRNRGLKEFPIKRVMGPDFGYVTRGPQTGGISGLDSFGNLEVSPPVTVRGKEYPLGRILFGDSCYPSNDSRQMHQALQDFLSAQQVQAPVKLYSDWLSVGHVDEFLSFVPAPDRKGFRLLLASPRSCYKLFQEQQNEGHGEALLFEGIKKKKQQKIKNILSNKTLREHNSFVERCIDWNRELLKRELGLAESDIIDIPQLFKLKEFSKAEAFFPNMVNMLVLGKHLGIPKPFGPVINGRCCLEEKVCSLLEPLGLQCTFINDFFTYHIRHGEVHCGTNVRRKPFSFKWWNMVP

The assay has as its target human PAD4 (hPAD4) (Homo sapiens (Human), UniProt Q9UM07). The assay is described as follows: RFMS Human PAD4 Functional Assay. Format: biochemical. Conditions: rapid-fire mass spectrum (RFMS) assay; 5 nM hPAD4 enzyme, 250 μM BAEE, 30 min preincubation at 37° C. As for the experimental part: Compounds of the present invention were assayed as inhibitors of PAD4 using the assay protocol described below.
RFMS Human PAD4 Functional Assay:
Compounds were solubilized in 100% DMSO to achieve a10 mM compound concentration. Compound stock solutions were stored at RT. A series of dilutions were prepared in DMSO and mixed 8 times with 20 μL mixing volume. Final top concentration of compound in the assay is 50 μM. Final assay conditions were as follows: • Reaction volume: 26 μl • Assay buffer: 25 mM hepes, pH 7.5, 5 mM NaCl, 1 mM DTT, 0.2 mg/ml BSA, 0.01% CHAPS, 50 μM Calcium, and 5 μM TPEN • Final concentrations: 5 nM hPAD4 enzyme, 250 μM BAEE, and 0.5% DMSO • Total incubation time: 30 mins compound and enzyme preincubation at 37° C., 90 min enzyme/substrate reaction, 30 min reaction with phenyl glyoxal at 37° C. • Stop solution: 40 μl 5% TCA in ACN
0.13 μL of compound solution was added to 13 μL of 10 nM PAD4 in assay buffer. After 30 min 13 μl of 500 μM of BAEE was added in 25 mM hepes, pH 7.5, 5 mM NaCl, 1 mM DTT, 0.2 mg/ml BSA, 0.01% CHAPS, 50 μM Calcium, 5 μM TPEN was added and the reaction incubated for 90 min at 37° C. The enzymatic reaction was quenched by addition of 15 μl of 6.1N TCA, 100% Final Concentration is 20%, 35 μl of 8.5 mM phenyl glyoxal (final concentration 4 mM) is then added and the reaction is incubated for 30 min at 37° C.
After 30 minutes the plates are spun down to remove all precipitate. The enzyme reaction was quenched with an equal volume of methanol containing internal standard (modified citrulline). Samples were loaded onto the Rapid Fire RF300 system (Agilent) wherein they were first sipped for 1000 ms and then directly loaded to a C18 separations cartridge using a mixture of acetonitrile containing 0.01% formic acid for 3000 ms desalting. The flow rate of the mobile phase was 1.5 ml/min. Once the samples were eluted from the cartridge, a mobile phase of acetonitrile containing 0.01% formic acid was used to move the samples into the mass spectrometer for 4000 ms at a flow rate of 1.25 ml/min/Sciex API5500 triple quadrupole mass spectrometer (Applied Biosystems) equipped with ESI was used to analyze the peptidyl citrulline and internal standard ions.
MRM transition of product and internal standard were monitored at m/z 424.5 to 350.4 and m/z 293 to 247 respectively. The dwell time for each transition was set at 200 ms, and the ESI voltage was used at 5500 with a source temperature of 400° C. Extracted ion peaks for each transition were integrated using the Rapid Fire Integrator software. Peak area of analyte was normalized with internal standard.).
`COc1cc(C(=O)N2C[C@H]3CC[C@@H]2[C@@H]3N)cc2nc(-c3cc4scc(C5CCN(C(C)=O)CC5)c4n3CC3CC3)n(C)c12` [Example 4, 1-(4-(5-(5-((1R,4R,7R)-7-amino-2-azabicyclo[2.2.1]heptane-2-carbonyl)-7-methoxy-1-methyl-1H-benzo[d]imidazol-2-yl)-4-(cyclopropylmethyl)-4H-thieno[3,2-b]pyrrol-3-yl)piperidin-1-yl)ethan-1-one] showed an IC50 of 14 nM. To `COc1cc(C(=O)N2C[C@H]3CC[C@@H]2[C@@H]3N)cc2nc(-c3cc4scc(-c5ccc(O)c(Cl)c5)c4n3CC3CC3)n(C)c12` [Example 35, ((1R,4R,7R)-7-amino-2-azabicyclo[2.2.1]heptan-2-yl)(2-(3-(3-chloro-4-hydroxyphenyl)-4-(cyclopropylmethyl)-4H-thieno[3,2-b]pyrrol-5-yl)-7-methoxy-1-methyl-1H-benzo[d]imidazol-5-yl)methanone] belongs 150 nM; to `COc1cc(C(=O)N2C[C@H]3CC[C@@H]2[C@@H]3N)cc2nc(-c3cc4sc(-c5cn[nH]c5)cc4n3CC3CC3)n(C)c12` [Example 26, ((1R,4R,7R)-7-amino-2-azabicyclo[2.2.1]heptan-2-yl)(2-(4-(cyclopropylmethyl)-2-(1H-pyrazol-4-yl)-4H-thieno[3,2-b]pyrrol-5-yl)-7-methoxy-1-methyl-1H-benzo[d]imidazol-5-yl)methanone], 107 nM. For `COc1cc(C(=O)N2C[C@H]3CC[C@@H]2[C@@H]3N)cc2nc(-c3cc4scc(C5CNC5)c4n3CC3CC3)n(C)c12` [Example 16, ((1R,4R,7R)-7-amino-2-azabicyclo[2.2.1]heptan-2-yl)(2-(3-(azetidin-3-yl)-4-(cyclopropylmethyl)-4H-thieno[3,2-b]pyrrol-5-yl)-7-methoxy-1-methyl-1H-benzo[d]imidazol-5-yl)methanone], the IC50 amounted to 127 nM.

The compound `COc1cc(C(=O)N2C[C@H]3CC[C@@H]2[C@@H]3N)cc2nc(-c3cc4scc(-c5cnn(CC(F)(F)F)c5)c4n3CC3CC3)n(C)c12` [Example 42, ((1R,4R,7R)-7-amino-2-azabicyclo[2.2.1]heptan-2-yl)(2-(4-(cyclopropylmethyl)-3-(1-(2,2,2-trifluoroethyl)-1H-pyrazol-4-yl)-4H-thieno[3,2-b]pyrrol-5-yl)-7-methoxy-1-methyl-1H-benzo[d]imidazol-5-yl)methanone] gave an IC50 of 59 nM.

As for `COc1cc(C(=O)N2C[C@H]3CC[C@@H]2[C@@H]3N)cc2nc(-c3cc4scc(Br)c4n3CC3CC3)n(C)c12` [Example 1, ((1R,4R,7R)-7-amino-2-azabicyclo[2.2.1]heptan-2-yl)(2-(3-bromo-4-(cyclopropylmethyl)-4H-thieno[3,2-b]pyrrol-5-yl)-7-methoxy-1-methyl-1H-benzo[d]imidazol-5-yl)methanone], the IC50 is 35 nM. The compound `COc1cc(C(=O)N2C[C@H]3CC[C@@H]2[C@@H]3N)cc2nc(-c3cc4scc(C5CC(O)C5)c4n3CC3CC3)n(C)c12` (single isomer, unassigned) [Example 22] showed an IC50 of 82 nM. With `COc1cc(C(=O)N2C[C@H]3CC[C@@H]2[C@@H]3N)cc2nc(-c3cc4scc(CC(CN)CCl)c4n3CC3CC3)n(C)c12` (stereo partly drawn) [Example 19, (2-(3-(3-amino-2-(chloromethyl)propyl)-4-(cyclopropylmethyl)-4H-thieno[3,2-b]pyrrol-5-yl)-7-methoxy-1-methyl-1H-benzo[d]imidazol-5-yl)((1R,4R,7R)-7-amino-2-azabicyclo[2.2.1]heptan-2-yl)methanone] the figure was 70 nM; with `COc1cc(C(=O)N2C[C@H]3CC[C@@H]2[C@@H]3N)cc2nc(-c3cc4scc(-c5ccn(C)n5)c4n3CC3CC3)n(C)c12` [Example 37, ((1R,4R,7R)-7-amino-2-azabicyclo[2.2.1]heptan-2-yl)(2-(4-(cyclopropylmethyl)-3-(1-methyl-1H-pyrazol-3-yl)-4H-thieno[3,2-b]pyrrol-5-yl)-7-methoxy-1-methyl-1H-benzo[d]imidazol-5-yl)methanone], 54 nM. To `COc1cc(C(=O)N2C[C@H]3CC[C@@H]2[C@@H]3N)cc2nc(-c3cc4scc(C5CN(C(C)=O)C5)c4n3CC3CC3)n(C)c12` [Example 23, 1-(3-(5-(5-((1R,4R,7R)-7-amino-2-azabicyclo[2.2.1]heptane-2-carbonyl)-7-methoxy-1-methyl-1H-benzo[d]imidazol-2-yl)-4-(cyclopropylmethyl)-4H-thieno[3,2-b]pyrrol-3-yl)azetidin-1-yl)ethan-1-one] belongs 55 nM.

`COc1cc(C(=O)N2C[C@H]3CC[C@@H]2[C@@H]3N)cc2nc(-c3cc4scc(-c5ccnn5C)c4n3CC3CC3)n(C)c12` [Example 45, ((1R,4R,7R)-7-amino-2-azabicyclo[2.2.1]heptan-2-yl)(2-(4-(cyclopropylmethyl)-3-(1-methyl-1H-pyrazol-5-yl)-4H-thieno[3,2-b]pyrrol-5-yl)-7-methoxy-1-methyl-1H-benzo[d]imidazol-5-yl)methanone] returned an IC50 of 53 nM. With `COc1cc(C(=O)N2C[C@H]3CC[C@@H]2[C@@H]3N)cc2nc(-c3cc4scc(C5CCNCC5)c4n3CC3CC3)n(C)c12` [Example 3, ((1R,4R,7R)-7-amino-2-azabicyclo[2.2.1]heptan-2-yl)(2-(4-(cyclopropylmethyl)-3-(piperidin-4-yl)-4H-thieno[3,2-b]pyrrol-5-yl)-7-methoxy-1-methyl-1H-benzo[d]imidazol-5-yl)methanone] the figure was 12 nM; with `COc1cc(C(=O)N2C[C@H]3CC[C@@H]2[C@@H]3N)cc2nc(-c3cc4scc(C5CC(O)C5)c4n3CC3CC3)n(C)c12` (mixture of isomers) [Example 7, cis/trans-((1R,4R,7R)-7-amino-2-azabicyclo[2.2.1]heptan-2-yl)(2-(4-(cyclopropylmethyl)-3-(3-hydroxycyclobutyl)-4H-thieno[3,2-b]pyrrol-5-yl)-7-methoxy-1-methyl-1H-benzo[d]imidazol-5-yl)methanone], 34 nM; with `COc1cc(C(=O)N2C[C@H]3CC[C@@H]2[C@@H]3N)cc2nc(-c3cc4scc(C5CC(NC(C)=O)C5)c4n3CC3CC3)n(C)c12` (stereo partly drawn) [Example 5, N-(3-(5-(5-((1R,4R,7R)-7-amino-2-azabicyclo[2.2.1]heptane-2-carbonyl)-7-methoxy-1-methyl-1H-benzo[d]imidazol-2-yl)-4-(cyclopropylmethyl)-4H-thieno[3,2-b]pyrrol-3-yl)cyclobutyl)acetamide], 19 nM. To `COc1cc(C(=O)N2C[C@H]3CC[C@@H]2[C@@H]3N)cc2nc(-c3cc4scc(CCCO)c4n3CC3CC3)n(C)c12` [Example 14, ((1R,4R,7R)-7-amino-2-azabicyclo[2.2.1]heptan-2-yl)(2-(4-(cyclopropylmethyl)-3-(3-hydroxypropyl)-4H-thieno[3,2-b]pyrrol-5-yl)-7-methoxy-1-methyl-1H-benzo[d]imidazol-5-yl)methanone] belongs 56 nM; to `COc1cc(C(=O)N2C[C@H]3CC[C@@H]2[C@@H]3N)cc2nc(-c3cc4scc(CC5CNC5)c4n3CC3CC3)n(C)c12` [Example 18, ((1R,4R,7R)-7-amino-2-azabicyclo[2.2.1]heptan-2-yl)(2-(3-(azetidin-3-ylmethyl)-4-(cyclopropylmethyl)-4H-thieno[3,2-b]pyrrol-5-yl)-7-methoxy-1-methyl-1H-benzo[d]imidazol-5-yl)methanone], 165 nM. To `COc1cc(C(=O)N2C[C@H]3CC[C@@H]2[C@@H]3N)cc2nc(-c3cc4scc(-c5ccc[nH]5)c4n3CC3CC3)n(C)c12` [Example 46, ((1R,4R,7R)-7-amino-2-azabicyclo[2.2.1]heptan-2-yl)(2-(4-(cyclopropylmethyl)-3-(1H-pyrrol-2-yl)-4H-thieno[3,2-b]pyrrol-5-yl)-7-methoxy-1-methyl-1H-benzo[d]imidazol-5-yl)methanone] belongs 173 nM; to `COc1cc(C(=O)N2C[C@H]3CC[C@@H]2[C@@H]3N)cc2nc(-c3cc4scc(C5CCCNC5)c4n3CC3CC3)n(C)c12` (single isomer, unassigned) [Example 17], 79 nM.

Broadly, the IC50 is the point on the concentration scale where inhibition reaches its midpoint. A higher IC50 goes with lower potency.
